Measured values reported in the supplement of paper PMC10331698.
± gives the standard deviation of the averaged measurements.

Key:
Test in all cases: level (log10 ratio to DMSO vehicle control); higher = higher biomarker level / cell amount than vehicle control
Details in all cases: in DMSO
[1] = compound: COC(=O)C(F)(F)C(F)(F)OC(F)(C(F)(F)F)C(F)(F)OC(F)=C(F)F [Methyl perfluoro(3-(1-ethenyloxypropan-2-yloxy)propanoate)]
Method: (§1)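 BioMAP Diversity Plus panel of 12 human primary cell co-culture systems (3C, 4H, LPS, SAg, BT, BF4T, BE3C, CASM3C, HDF3CGF, KF3CT, MyoF, Mphg). Compounds were added 1 h before stimulation and left for 24 h (MyoF 48 h; BT 72 h for soluble read-outs or 6 d for IgG). Biomarkers were read by ELISA, cytotoxicity by SRB, PBMC viability and proliferation by Alamar Blue. Each well value was divided by the mean of 8 DMSO control wells on the same plate and log10 transformed; duplicate blinded samples were tested at 4 concentrations.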

[2] = compound: FC(F)(F)C(F)(F)CNCC(F)(F)C(F)(F)F [Bis(1H,1H-perfluoropropyl)amine]
Method: as §1

[3] = compound: O=C(O)C=CC(F)(C(F)(F)F)C(F)(F)F [3-(Perfluoroisopropyl)-2-propenoic acid]
Method: as §1

[4] = compound: O=S(=O)(O)C(F)(F)C(F)(F)C(F)(F)C(F)(F)C(F)(F)C(F)(F)C(F)(F)C(F)(F)C(F)(F)C(F)(F)F [Sodium perfluorodecanesulfonate]
Method: as §1

[5] = compound: O=S(=O)(O)CCC(F)(F)C(F)(F)C(F)(F)C(F)(F)C(F)(F)C(F)(F)F [6:2 Fluorotelomer sulfonic acid]
Method: as §1

[6] = compound: OCC(F)(F)C(F)(F)C(F)(F)CO [Hexafluoroamylene glycol]
Method: as §1

Test System	level (log10) ([1]; 6700 nM)	level (log10) ([1]; 20000 nM)	level (log10) ([2]; 6700 nM)	level (log10) ([2]; 20000 nM)	level (log10) ([2]; 60000 nM)	level (log10) ([3]; 6700 nM)	level (log10) ([3]; 20000 nM)	level (log10) ([3]; 60000 nM)	level (log10) ([4]; 1500 nM)	level (log10) ([4]; 4400 nM)	level (log10) ([4]; 13000 nM)	level (log10) ([4]; 40000 nM)	level (log10) ([5]; 6700 nM)	level (log10) ([5]; 20000 nM)	level (log10) ([5]; 60000 nM)	level (log10) ([6]; 6700 nM)	level (log10) ([6]; 20000 nM)	level (log10) ([6]; 60000 nM)
BF4T:IL-1alpha	-0.002 ± 0.0014	0.0105 ± 0.023	-0.007 ± 0.014	-0.0135 ± 0.015	0.0105 ± 0.049	-0.002 ± 0.021	0.0065 ± 0.011	0.012 ± 0.0057	0.037 ± 0.034	-0.0165 ± 0.033	0.0095 ± 0.011	-0.0155 ± 0.0064	0.006 ± 0.0085	0.0005 ± 0.0092	0.023 ± 0.018	-0.001 ± 0.014	-0.0175 ± 0.0035	0.0075 ± 0.029
BE3C:EGFR	-0.04 ± 0.014	-0.053 ± 0.031	-0.011 ± 0.014	-0.008 ± 0.0057	0.0065 ± 0.021	0.0005 ± 0.016	0.0085 ± 0.00071	0.004 ± 0.0014	0.0185 ± 0.0035	0.0015 ± 0.0064	-0.022 ± 0.014	-0.032 ± 0.027	-0.0075 ± 0.00071	-0.027 ± 0.0085	-0.0095 ± 0.0064	0.0035 ± 0.005	-0.0115 ± 0.0078	0.009 ± 0.0071
SAg:CCL2/MCP-1	-0.01 ± 0.0085	0.011 ± 0.058	-0.013 ± 0.016	-0.006 ± 0.0099	0.017 ± 0.028	-0.003 ± 0.0042	-0.0005 ± 0.016	-0.0055 ± 0.0064	0.0175 ± 0.022	-0.014 ± 0.016	0.043 ± 0.0085	0.0825 ± 0.021	-0.019 ± 0.0085	-0.015 ± 0.0042	0.0035 ± 0.019	-0.012	-0.002 ± 0.011	-0.016 ± 0.0099
LPS:CXCL8/IL-8	0.019 ± 0.0042	0.0355 ± 0.019	-0.0185 ± 0.005	-0.0325 ± 0.037	0.017 ± 0.099	-0.0055 ± 0.019	-0.0205 ± 0.023	-0.0015 ± 0.019	-0.022 ± 0.025	0.032 ± 0.018	0.0335 ± 0.054	-0.176 ± 0.016	0.045 ± 0.013	0.072 ± 0.064	0.192 ± 0.1	0.025 ± 0.076	0.026 ± 0.0057	0.0885 ± 0.037
BF4T:Keratin 8/18	0.029 ± 0.02	0.015 ± 0.042	-0.0075 ± 0.0064	-0.019 ± 0.013	0.015 ± 0.03	-0.018 ± 0.028	-0.0135 ± 0.0021	-0.0035 ± 0.044	0.02 ± 0.0071	0.005 ± 0.023	-0.0175 ± 0.015	-0.044 ± 0.023	0.0075 ± 0.019	-0.0065 ± 0.016	0.0045 ± 0.011	0.0045 ± 0.018	-0.0075 ± 0.0092	0.0125 ± 0.013
BT:sIL-2	-0.0335 ± 0.018	-0.059 ± 0.038	-0.011 ± 0.064	0.012 ± 0.064	0.0645 ± 0.1	0.029 ± 0.058	-0.049 ± 0.12	0.001 ± 0.0085	0.0125 ± 0.09	0.014 ± 0.051	0.0265 ± 0.1	0.12 ± 0.064	-0.0555 ± 0.011	0.0325 ± 0.018	-0.01 ± 0.031	0.0335 ± 0.022	0.0145 ± 0.054	0.0365 ± 0.056
LPS:sPGE2	-0.015 ± 0.021	0.0015 ± 0.029	0.038 ± 0.033	0.005 ± 0.0014	0.0485 ± 0.067	0.01 ± 0.065	0.046 ± 0.023	0.0575 ± 0.025	0.035 ± 0.02	0.006 ± 0.041	-0.009 ± 0.04	-0.123 ± 0.023	-0.008 ± 0.023	-0.0215 ± 0.047	-0.0345 ± 0.029	-0.0265 ± 0.022	-0.0255 ± 0.071	-0.0325 ± 0.054
BT:sIL-17F	-0.027 ± 0.018	-0.064 ± 0.12	-0.088 ± 0.042	-0.0175 ± 0.076	0.0375 ± 0.0064	-0.088 ± 0.081	-0.014 ± 0.054	0.0025 ± 0.043	-0.025 ± 0.083	0.0315 ± 0.1	0.0615 ± 0.19	0.025 ± 0.086	0.0005 ± 0.064	0.0725 ± 0.012	0.0155 ± 0.011	0.0185 ± 0.069	0.028 ± 0.041	0.05 ± 0.033
BF4T:CD54/ICAM-1	-0.0215 ± 0.011	-0.0265 ± 0.0064	-0.0035 ± 0.0021	-0.013 ± 0.0014	0.001 ± 0.04	0.007 ± 0.0042	-0.0005 ± 0.025	0.011 ± 0.0028	-0.019 ± 0.0071	-0.031 ± 0.016	-0.014 ± 0.014	-0.0105 ± 0.025	-0.0115 ± 0.00071	-0.015 ± 0.021	-0.0095 ± 0.018	-0.0145 ± 0.005	-0.0045 ± 0.015	0.009 ± 0.014
4H:VEGFR2	-0.008 ± 0.014	0.006 ± 0.034	0.0065 ± 0.028	0.0135 ± 0.023	-0.009	-0.0145 ± 0.019	0.004 ± 0.05	0.01 ± 0.045	0.003 ± 0.013	-0.03 ± 0.059	-0.02 ± 0.073	0.024 ± 0.047	-0.0215 ± 0.012	-0.101 ± 0.0064	-0.026 ± 0.021	-0.061 ± 0.023	-0.032 ± 0.013	-0.0255 ± 0.0021
LPS:M-CSF	-0.0065 ± 0.013	-0.0105 ± 0.0064	-0.006 ± 0.083	-0.0485 ± 0.12	-0.0485 ± 0.087	-0.011 ± 0.041	-0.0065 ± 0.0092	0.0035 ± 0.0035	0.0045 ± 0.021	0.005 ± 0.0057	0.01 ± 0.027	-0.006 ± 0.037	-0.0045 ± 0.015	0.004 ± 0.03	0.0485 ± 0.039	-0.0075 ± 0.016	0.0115 ± 0.0078	-0.003 ± 0.035
LPS:CD141/Thrombomodulin	-0.05 ± 0.0099	-0.071 ± 0.027	0.046 ± 0.088	0.0005 ± 0.14	-0.0095 ± 0.096	-0.024 ± 0.037	-0.022 ± 0.0057	-0.036 ± 0.02	-0.0315 ± 0.0064	0.0015 ± 0.046	-0.021 ± 0.0071	0.071 ± 0.047	0.061 ± 0.03	0.065 ± 0.0057	0.0475 ± 0.021	0.0715 ± 0.097	0.035 ± 0.023	0.06 ± 0.064
SAg:CD38	-0.0175 ± 0.13	0.038 ± 0.082	0.001 ± 0.017	-0.008 ± 0.018	0.002 ± 0.014	-0.0125 ± 0.026	0.001 ± 0.0071	-0.019 ± 0.0085	-0.018 ± 0.02	-0.041 ± 0.03	0.005 ± 0.035	-0.071 ± 0.028	-0.0315 ± 0.012	-0.022 ± 0.04	-0.0505 ± 0.032	-0.02 ± 0.034	-0.03 ± 0.025	-0.0275 ± 0.046
BF4T:CD106/VCAM-1	-0.007 ± 0.071	-0.091 ± 0.025	-0.034 ± 0.0057	-0.034 ± 0.017	0.008 ± 0.069	-0.0095 ± 0.04	-0.0275 ± 0.025	0.0225 ± 0.019	-0.0095 ± 0.021	-0.0125 ± 0.069	-0.096 ± 0.035	-0.106 ± 0.028	-0.0125 ± 0.04	-0.0315 ± 0.0035	-0.022 ± 0.057	-0.0015 ± 0.023	0.0045 ± 0.023	0.034 ± 0.025
